Experimental data taken from US7420062B2, “Hetaryl-substituted pyrazolidindione derivatives with pesticidal characteristics” (Bayer CropScience, AG, priority 2003, dated 2008).

Legend:
[1] = test system: Lolium; test: Herbicidal pre-emergence action, greenhouse; format: in vivo; details: 1000 g a.i./ha, visual assessment after 2 to 3 weeks, 100% = plants have died
From the text: (§1) 1. Herbicidal Pre-emergence Action Seeds of monocotyledonous and dicotyledonous weed and crop plants are placed into sandy loam and covered with soil. The test compounds, formulated in the form of emulsion concentrates (EC), are, in various dosages with a water application rate of 800 l/ha (converted), with wetting agent added, applied to the surface of the covering soil. After the treatment, the pots are placed in a greenhouse and kept under good growth conditions for the test plants. The visual assessment of the emergence damage on the test plants is carried out after a trial period of 2 to 3 weeks by comparison with untreated controls (herbicidal effect in percent (%): 100% effect=the plants have died, 0% effect=like control plants).

[2] = test system: Setaria; test: Herbicidal pre-emergence action, greenhouse; format: in vivo; details: 1000 g a.i./ha, visual assessment after 2 to 3 weeks, 100% = plants have died
From the text: as §1

[3] = test system: green peach aphid (Myzus persicae); test: Myzus test (spray treatment); format: in vivo; details: 100 g/ha, spray treatment of Chinese cabbage discs
Protocol: Myzus Test—(Spray Treatment) Solvents: 78 parts by weight of acetone 1.5 parts by weight of dimethylformamide Emulsifier: 0.5 part by weight of alkylaryl polyglycol ether To produce a suitable preparation of active compound, 1 part by weight of active compound is mixed with the stated amount of solvents and the stated amount of emulsifier, and the concentrate is diluted with emulsifier-containing water to the desired concentration. Discs of Chinese cabbage (Brassica pekinensis) which are infested by all stages of the green peach aphid (Myzus persicae) are sprayed with a preparation of active compound of the desired concentration. After the desired period of time, the effect in % is determined. 100% means that all aphids have been killed; 0% means that none of the aphids have been killed.

[4] = test system: Lolium; test: Herbicidal post-emergence action, greenhouse; format: in vivo; details: 1000 g a.i./ha, rated visually after 2 weeks, 100% = plants have died
Protocol: (§2) 2. Herbicidal Post-emergence Action Seeds of monocotyledonous and dicotyledonous weed and crop plants are placed into sandy loam, covered with soil and cultivated in a greenhouse under good growth conditions. About 2 weeks after sowing, the test plants are treated at the one-leaf stage. The test compounds, formulated as emulsion concentrates (EC), are, in various dosages with a water application rate of 800 l/ha (converted), with wetting agents added, sprayed onto the green parts of the plants. After the test plants have, been kept in the greenhouse under optimum growth conditions for 2 weeks, the effect of the preparations is rated visually in comparison to untreated controls (herbicidal effect in percent (%): 100% effect=the plants have died, 0% effect=like control plants).

[5] = test system: Echinoclora; test: Herbicidal post-emergence action, greenhouse; format: in vivo; details: 1000 g a.i./ha, rated visually after 2 weeks, 100% = plants have died
Protocol: as §2

[6] = test system: Setaria; test: Herbicidal post-emergence action, greenhouse; format: in vivo; details: 1000 g a.i./ha, rated visually after 2 weeks, 100% = plants have died
Protocol: as §2

melting point | SMILES | herbicidal effect in percent, Lolium [1] | herbicidal effect in percent, Setaria [2] | Kill rate in % after 5 d [3] | herbicidal effect in percent, Lolium [4] | herbicidal effect in percent, Echinoclora [5] | herbicidal effect in percent, Setaria [6]
86 °C | Cc1scnc1-c1c(O)n2n(c1=O)CCCC2 (single isomer, unassigned) [Example I-3-b-2] | – | – | – | – | – | –
182 °C | Cc1scnc1-c1c(O)n2n(c1=O)CCCC2 (single isomer, unassigned) [Example I-3-b-3] | – | – | – | – | – | –
– | CCCc1cc(-c2ccc(Cl)cc2)nn1-c1c(O)n2n(c1=O)CCCC2 [Example I-3-a-1] | 100% | 100% | 100% | 90% | 100% | 100%
